# Source: patent publication US20230247987A1, “THE USE OF SAFENERS TO IMPROVE TOLERANCE OF ACCASE TOLERANT SORGHUM CROP TO HERBICIDES” (Adama Agan Ltd., priority 2020, published 2023)
# Columns and labels:
# Format in all cases: in vivo
# [1] = system: shattercane (Sorghum bicolor); assay: Field trial: control of shattercane; conditions: after 7 days
# Setaria viridis = assay: Field trials: control of Setaria viridis
# Panicum miliace = assay: Field trials: control of Panicum miliace
# [2] = system: ACCase tolerant sorghum variety BTX430-CHR-ACC1; assay: Greenhouse crop response of ACCase tolerant sorghum to quizalofop with and without isoxadifen; conditions: FIG. 1, X-rates 0.5-8 (Quizalofop 39-616 g/ha, Isoxadifen 27-431 g/ha), rated approximately 14 days after application, versus quizalofop without isoxadifen
# Text: Seeds of the proprietary ACCase tolerant sorghum variety BTX430-CHR-ACC1 (ATCC deposit PTA-125106, mutation W1999C) were supplied by S&W. BTX430-CHR-ACC1 sorghum cultivar contains a single mutation in the ACCase gene that confers ACCase tolerance: Tryptophan to Cysteine amino acid substitution at an amino acid position 1999 (W1999C; SEQ ID NO: 7 as disclosed in WO 2018/222715, namely the sequence denoted herein by SEQ ID NO: 6) aligning with the amino acid sequence of SEQ ID NO: 6 (as disclosed in WO 2018/222715, namely the sequence denoted herein by SEQ ID NO: 5). The mutation provides tolerance to quizalofop.
# ACCase tolerant Sorghum seeds (S & W Line ID: T19-90001) were planted in commercial greenhouse soil mix in ˜8-cm square pots.
# Plants were started in a greenhouse and placed outdoors at ambient air temperatures when temperatures were conducive to sorghum growth.
# Soil fertility and moisture were provided on an as needed basis.
# Plants were grown to heights of 10 to 13, 15-18, 20 to 25 and 30 to 35 cm for treatment.
# Safener was premixed in the ADM.7000.H.2.A formulation.
# Sorghum plants were subjected to “Standard Weed Science Percentage Rankings” where 0=no effect of the herbicide and 100%=complete plant death. Injury represents discoloration, stunting and malformation. Ratings were taken approximately 14 days after herbicide application. […]
# [3] = Table 4 trial, after 33 days, X-rate 0.5: Quizalofop 5 oz/a, Isoxadifen 5 oz/a or none
# [4] = Table 4 trial, after 33 days, X-rate 1: Quizalofop 10 oz/a, Isoxadifen 10 oz/a or none
# [5] = Table 4 trial, after 33 days, X-rate 2: Quizalofop 20 oz/a, Isoxadifen 20 oz/a or none
# [6] = Table 5 second trial, after 27 days, X-rate 0.5: Quizalofop 5 oz/a, Isoxadifen 5 oz/a or none
# [7] = Table 5 second trial, after 27 days, X-rate 1: Quizalofop 10 oz/a, Isoxadifen 10 oz/a or none
# [8] = Table 5 second trial, after 27 days, X-rate 2: Quizalofop 20 oz/a, Isoxadifen 20 oz/a or none
SMILES,"% control Shattercane ([1]; X-rate 0.5: Quizalofop 5 oz/a, Isoxadifen 5 oz/a or none)","% control Shattercane ([1]; X-rate 1: Quizalofop 10 oz/a, Isoxadifen 10 oz/a or none)","% control Shattercane ([1]; X-rate 2: Quizalofop 20 oz/a, Isoxadifen 20 oz/a or none)",% control Setaria viridis (Setaria viridis; [3]),% control Setaria viridis (Setaria viridis; [4]),% control Setaria viridis (Setaria viridis; [5]),% control Setaria viridis (Setaria viridis; [6]),% control Setaria viridis (Setaria viridis; [7]),% control Setaria viridis (Setaria viridis; [8]),% control Panicum miliace (Panicum miliace; [3]),% control Panicum miliace (Panicum miliace; [4]),% control Panicum miliace (Panicum miliace; [5]),% control Panicum miliace (Panicum miliace; [6]),% control Panicum miliace (Panicum miliace; [7]),% control Panicum miliace (Panicum miliace; [8]),crop response (percentage of sorghum crop displaying phytotoxicity) against the X-Rate [2]
"CCOC(=O)[C@@H](C)Oc1ccc(Oc2cnc3cc(Cl)ccc3n2)cc1 [Quizalofop, quizalofop P-ethyl]",96.8%,96.8%,99%,100%,100%,100%,100%,100%,100%,100%,100%,100%,100%,100%,100%,–
O=C(O)C1=NOC(c2ccccc2)(c2ccccc2)C1 [isoxadifen],–,–,–,–,–,–,–,–,–,–,–,–,–,–,–,significant decrease of crop response
